The values that follow come from patent US20130303539A1, “COMPOUNDS WITH TRPV4 ACTIVITY, COMPOSITIONS AND ASSOCIATED METHODS THEREOF” (priority 2012, published 2013).

Assay [1] relates to retinal ganglion cells. The assay is described as follows: RGC density in retinal wholemounts of the MB mouse model. The format is in vivo. As to the method:
FIG. 2 confirms that the mouse model for glaucoma causes RGC degeneration. Specifically, microbeads (MBs) were injected into the anterior chamber of a mouse eye. The MBs increase intraocular IOP above 15 mm Hg by blocking outflow of the aqueous humor within the anterior chamber of the eye. MBs were reinjected as needed to maintain a high IOP, typically one injection every two weeks. Contralateral eyes were injected intraocularly with the vehicle PBS (phosphate buffered saline) as controls. […] IOP levels were measured at least twice weekly before and after intraocular injections. After injections, mice recovered for 48 hours before IOP measurements resumed. Following 4 or 8 weeks of IOP elevation, mice were intracardially perfused with 4% paraformaldehyde in 1×PBS to fix the retinas. Retinas were then removed and processed for immunohistochemistry (IHC). Whole retinas were rinsed with 1×PBS three times at room temperature then incubated in blocking buffer (1×PBS+1% BSA). […] The density of RGCs was imaged with a confocal microscope (Zeiss LSM 510) and quantified by counting NeuN-, CFP- and/or Tuj-1—labeled somata in the RGC layer of the retinal wholemount preparation. […]
RGD density was quantified in retinas isolated from TuJ-1^+ mice and transgenic Thy1-CRP^+ transgenic mice that had been injected with either MBs or vehicle (PBS) then dosed with either compound 1 or vehicle (PBS). […] TuJ-1 was quantified by immunohistochemistry using a Tuj-1-specific antibody conjugated to a fluorescent Alexa 488 or Alexa 594 secondary antibody. […] For fluorescence immunocytochemistry, retinal wholemounts were washed in PBS, then placed for 30 min. to 1 hour in blocking solution (10 ml PBS, 30 μL Triton-X 100, 100 mg bovine serum albumin, 100 μL 10% w/v Na azide solution) in OCT (Ted Pella, Redding, Pa.). […]

In assay [2] the test system is retinal ganglion cell. The assay is described as follows: Pressure-induced inward currents, High-Speed Pressure Clamp, voltage-clamped retinal ganglion cell. The format is cell-based. Conditions: pressure steps from 10 mm Hg to 50 mm Hg. As to the method: The cell was voltage clamped and stimulated with the High-Speed Pressure Clamp method, as detailed by Besch et al (Pflugers Arch. 2002 October; 445(1):161-6). This method consists of a specialized headstage coupled to a piezo element in the pressure/vacuum control valve. By balancing the access of pressure to the patch pipette, the device generates rapid and reproducible pressure steps of >±200 mm Hg. Channel activity is recorded in the cell-attached mode or the membrane is “zapped” into the outside-out configuration.

Assay [3] concerns retinal ganglion cells. The experiment in a line: TUNEL assay of apoptotic cell death in retina. The format is cell-based. To be noted: Compound 1 1 uM, RuR 10 μM. As to the method: Terminal deoxynucleotidyl transferase-mediated dUTP-biotin nick end labeling (TUNEL) is a common method for detecting fragmentation that results from apoptotic signaling cascades. Retinas were embedded, cryosectioned, and processed for the TUNEL assay following the protocol by Gavrieli et al. (1992). After 30 min. rehydration in 70% ethanol, 2×5 min. rinses in PBS and 1% Triton-X in 1% citrate buffer (pH 7.3), the slides were subjected to a final rinse in PBS. Slides were then incubated for 30 min. in the reaction buffer (30 mM Trizma-HCl, 140 mM Na^+ cacodylate, 1.0 mM CaCl2, 0.2% Triton X-100, pH 7.2). Positive controls were treated with DNAse I (Roche Diagnostics; Branford, Conn.; 10 U/ml) in the reaction buffer. Next, slides were treated for 1 hour with 0.03 units/pi terminal transferase and 4 μM biotin-16-dUTP (Roche Diagnostics). The reaction was terminated in 30 mM Na+ citrate, 300 mM NaCl and 0.2% Triton X-100 in PBS (5 min.) and rinsed in PBS (2×5 min), exposed to 1% bovine serum albumin in PBS for 20 min and rinsed. Apoptotic cells were visualized with a confocal microscope (Zeiss LSM510) and categorized by size. […] This was blocked by RuR and by the TRPV4 antagonist Compound 1.

Assay [4] concerns the target T1, TRPV4 (Mus musculus, UniProt Q9EPK8). The assay is described as follows: TRPV4 agonist GSK-evoked [Ca++]i in retinal Müller glial cells. Format: cell-based. More on the design: endogenous in cells; host or cells: retinal Müller glial cells.
For assay [5], the target named is T1, TRPV4. The experiment in a line: Block of TRPV4 agonist-induced calcium responses in retinal ganglion cells. Format: cell-based. More on the design: endogenous in cells; host or cells: retinal Müller glial cells. As to the method: Calcium responses in retinal ganglion cells were elicited by 25 nM agonist GSK in the presence of varying concentrations of Compound 1. The half-maximal dose of inhibition was ˜300 nM.

T1 sequence (Q9EPK8 whole entry): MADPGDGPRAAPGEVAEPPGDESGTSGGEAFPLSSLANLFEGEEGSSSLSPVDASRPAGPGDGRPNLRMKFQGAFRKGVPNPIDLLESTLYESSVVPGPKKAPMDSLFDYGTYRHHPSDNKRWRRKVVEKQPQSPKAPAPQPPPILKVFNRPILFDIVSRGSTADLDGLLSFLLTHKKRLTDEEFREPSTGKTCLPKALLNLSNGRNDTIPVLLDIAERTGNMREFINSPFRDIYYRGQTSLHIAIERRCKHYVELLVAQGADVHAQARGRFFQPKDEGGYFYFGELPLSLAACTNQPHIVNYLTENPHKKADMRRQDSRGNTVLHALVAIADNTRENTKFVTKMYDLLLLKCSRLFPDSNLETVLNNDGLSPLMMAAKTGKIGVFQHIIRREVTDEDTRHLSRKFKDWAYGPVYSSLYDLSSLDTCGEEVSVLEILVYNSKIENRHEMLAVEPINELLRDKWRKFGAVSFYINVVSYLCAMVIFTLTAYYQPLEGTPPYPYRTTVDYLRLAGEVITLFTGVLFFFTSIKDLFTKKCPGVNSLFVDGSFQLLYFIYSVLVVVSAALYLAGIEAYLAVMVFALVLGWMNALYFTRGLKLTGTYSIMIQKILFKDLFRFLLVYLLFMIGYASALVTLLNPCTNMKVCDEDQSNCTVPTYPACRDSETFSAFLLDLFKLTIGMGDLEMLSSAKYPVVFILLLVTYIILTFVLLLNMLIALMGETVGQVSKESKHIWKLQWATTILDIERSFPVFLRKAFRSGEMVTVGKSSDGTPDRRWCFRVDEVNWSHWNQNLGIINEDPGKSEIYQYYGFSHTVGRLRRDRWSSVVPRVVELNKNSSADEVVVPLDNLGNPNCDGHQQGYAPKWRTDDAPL

As usually defined, the IC50 is the concentration that inhibits the measured activity by half. In the case of `Cc1c(C(=O)Nc2cccc(C(F)(F)F)c2)cc(-c2ccccc2)n1CCCN1CCOCC1` [Compound 1, N-(3-(trifluoromethyl)phenyl)-2-methyl-1-(3-morpholinopropyl)-5-phenyl-1H-pyrrole-3-carboxamide], the “TuJ-1+ cells in the alpha, beta and omega regions” value in assay [1] (MB- or PBS-injected eyes, IP dosing) was “rescues RGCs across all regions of the retina”. Besides, in assay [1] (Thy1-CFP transgenic mice, MB- or PBS-injected eyes, IP dosing), the “CFP+ cells in the alpha, beta and omega regions” value is reported as “rescues RGCs across all regions of the retina”. Moreover, the “density of RGCs (TuJ-1+ cells and Thy1:CFP+ cells)” value in assay [1] (after 8 weeks of increased IOP, MB-injected mice) is “RGC loss was rescued”. Further, the pressure-induced inward currents entry in assay [2] is recorded as “reversibly antagonized”. The “apoptotic cell death (TUNEL) induced by hypotonic swelling” value in assay [3] (190 mOsm saline) is “block apoptotic cell death”. For the same molecule, the “apoptotic cell death (TUNEL) induced by the TRPV4 agonist GSK” value in assay [3] (GSK 100 nM) is “block apoptotic cell death”. In assay [4], the “block of GSK-evoked [Ca++]i increase” value is listed as “this effect is blocked”, the “reversibility of the effect on glial calcium levels” value was “reversible” and the “washout by superfusion with control saline” value amounted to 10 min. Also, the IC50 in assay [5] was roughly 300 nM.
